For 26 compounds, AC40 results are on record in PubChem BioAssay AID743396 (Broad Institute, 2014).

Active and inactive are the calls of the source.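 Rule for the calls: active = fitted curve reaches a 40% rise in fluorescent cells at or below the top valid dose; inactive = opposite-direction effect, or the rest.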

The test system of this experiment is mTEFS fibroblasts autofluorescence, GFP-channel imaging, 3 days. Put plainly: compound fluorescence in GFP channel, mTEFS cells – imaging, mTEFS fibroblasts, cherry-pick, artefact control for X-chromosome reactivation project, dose response (AID 743396). The following applies: cells pretreated with 5-aza-dC.
Take `COC1=CC(=O)c2c(ccc3ncnc(N)c23)C1=O`: the AC40 was > 19.5 µM (inactive).
The figure for `Cc1ccc2cc3c(N)c(C(=O)Nc4c(C)[nH]c(=O)[nH]c4=O)sc3nc2c1` is > 19.5 µM (inactive); for `COc1ccc(Cn2cc3c(-c4ccc(F)cc4)nnc-3c3cc(OC)c(OC)cc32)cc1` it is 6.18 µM; for `COc1ccc(N(C)S(=O)(=O)c2cccc(C(=O)NCC(c3cccs3)N(C)C)c2)cc1` (stereo unspecified) it is 13.9 µM.
Turning to `N#C/C(=C\c1ccc(N2CCCCC2)o1)C(=O)Nc1cccc(Br)c1`, the AC40 was 0.919 µM.
As for `CCCCCC[n+]1ccccc1/C=C/c1ccc(N(C)C)cc1`, the AC40 was > 19.5 µM (inactive).
The value for `COC(=O)C1=C(C)NC(C)=C(C(=O)OC)C1C(=O)OCC(=O)c1ccc(F)cc1` was > 19.5 µM (inactive).
The value for `Cc1ccc2c(c1)c(/C=C/c1cc[n+](C)cc1)c(C)n2C` was 10.1 µM; that for `O=[N+]([O-])c1ccc(N/N=C/c2ccc[nH]2)cc1` was > 19.5 µM (inactive); that for `CC(C)N1CCc2c(sc(NC(=O)c3ccc4ccccc4c3)c2C(N)=O)C1` was 10.6 µM.
The figure for `Cc1nnc(N2C(=O)c3cccc4c([N+](=O)[O-])ccc(c34)C2=O)s1` is > 19.5 µM (inactive); for `CC(C)(C)NC(=S)N/N=C\c1ccc(-c2ccc([N+](=O)[O-])cc2)o1` it is 7.84 µM.
Turning to `Cc1c2c(cc3c1[nH]c1ccccc13)C=NCC2`, the AC40 was 15.8 µM.
The figure for `Cc1cc(N/N=C/c2ccc([N+](=O)[O-])o2)nc2ccccc12` is 13.8 µM.
On to `COc1cc2c3nnc(-c4ccc(F)cc4)c-3cn(Cc3ccccc3)c2cc1OC`, for which the AC40 was 3.67 µM.
The value for `Cc1ccc(NC(=O)/C=C/c2ccc([N+](=O)[O-])s2)cc1` was 4.44 µM; that for `COC1C(CO)OC(n2c3c(Cl)cccc3c3c4c(c5c6cccc(Cl)c6[nH]c5c32)C(=O)NC4=O)C(O)C1O` (stereo unspecified) was > 19.5 µM (inactive).
The figure for `CN(C)CCCN1C(=O)c2cccc3c([N+](=O)[O-])ccc(c23)C1=O` is > 19.5 µM (inactive); for `CCOC(=O)C1=C(O)/C(=C/c2cc(OC)c(O)c(OC)c2)SC1=Nc1ccc(OC)cc1` it is > 19.5 µM (inactive); for `O=S(=O)(Nc1cc2nc3ccccc3nc2n1Cc1ccccc1)c1ccc(Cl)cc1` it is > 19.5 µM (inactive).
The value for `CC1=NN(c2nc(N)nc(/C(C#N)=C/c3ccc([N+](=O)[O-])o3)n2)C(C)(C)C1` was 4.78 µM; that for `COc1cc(N2CCCC2)c(OC)cc1/C=C1/NC(=S)NC1=O` was > 19.5 µM (inactive); that for `CCN1/C(=C/C=C/c2oc3ccc(-c4ccccc4)cc3[n+]2CC)Oc2ccc(-c3ccccc3)cc21` was 0.00627 µM.
Regarding `N#C/C(=C/c1ccc(-c2ccccc2)o1)c1nc(-c2cccs2)cs1`, the AC40 is 7.35 µM.
The value for `Cc1[nH]c2ccccc2c1/C=N/Nc1ccc([N+](=O)[O-])cc1` was 12.2 µM; that for `C/C(CC(=O)Nc1ccc(C)c(Cl)c1)=N\NC(=O)Cc1ccccc1` was 18.1 µM.
